Measured values reported in patent US10100307B2, “Use of a reverse-transcriptase inhibitor in the prevention and treatment of degenerative diseases” (Centre National de la Recherche Scientifique, priority 2014, dated 2018).

Legend:
[1] = system: Mouse embryonic midbrain neurons; assay: Formation of DSBs (gamma-H2AX foci per neuron) induced by H2O2 oxidative stress in vitro; type: cell-based; conditions: Stavudine 10 μM; gamma-H2AX labeling; H2O2 for 1 h; FIG. 2A; ***p<0.001, n=6
Method: (§1) Embryonic midbrain neurons (embryonic day 13.5) are cultured in NBGK medium (Neurobasal® (Life Technologies) supplemented with glutamine (500 μM, SIGMA), glutamic acid (3.3 mg/ml, SIGMA), aspartic acid (3.7 mg/ml, SIGMA), anti-anti and B27® (GIBCO)). A midbrain neuron culture was incubated overnight in the presence of Stavudine (10 μM in 0.9% NaCl). A control culture was treated under the same conditions, with a solution of NaCl (0.9%). The following day, the culture medium was replaced with Neurobasal® medium (Life Technologies) not supplemented with B27® (Life Technologies), containing 5 μM of H2O2 and 10 μM Stavudine/NaCl, for 1 h (FIG. 2). Alternatively, the cells were treated with H2O2 (100 μM) in the presence of B27 for one hour. Stavudine (10 μM) was added twice, 24 hours before and during treatment with H2O2 or lipofection (FIG. 2). The neurons were then fixed with PBS 4% paraformaldehyde (PFA) for 20 min, then treated with glycine (100 mM) in PBS for 10 min. […] The number of gamma-H2AX foci per neuron was counted on several slides, then the mean was taken over more than 30 neurons. […]
Mouse embryonic midbrain neurons (14 days' gestation), treated or untreated with an RT inhibitor (Stavudine), were subjected to an oxidative stress by addition of H2O2. […] The number of DSBs per neuron was evaluated after γ-H2AX labeling.

[2] = system: primary midbrain neurons; assay: Formation of DNA breaks induced by transfection with a plasmid (wt L1) overexpressing LINE-1; type: cell-based, mouse; conditions: Stavudine 10 μM added 24 hours before and during lipofection; FIG. 2B; ***p<0.001, n=6
Method: as §1

[3] = system: TH+ neurons in the substantia nigra pars compacta; assay: 6-OHDA injection into the substantia nigra (oxidative stress in vivo), stereological count of TH+ neurons; set-up: species or system mice; conditions: 24 h after injection of 6-OHDA; Stavudine 10 μM injected 30 min before and with 6-OHDA; FIG. 3B; **p<0.01, n=5
Method: For the 6-OHDA (6-hydroxydopamine) injections, anesthetized mice were placed on a stereotactic device and a burr hole was drilled in the cranium, 3.3 mm caudally and 1 mm laterally from the bregma. The needle of the syringe was aligned over the hole and descended 4 mm from the surface of the cranium, and 6-OHDA (2 μl; 0.8 μg/μl Sigma) or control (NaCl 0.9%) was injected into the SNpc for more than 4 min. For the immunohistological analysis, the mice were sacrificed 6 h, 24 h or 7 days after 6-OHDA injection. For the qRT-PCR analyses, tissues from the SNpc 6 h after 6-OHDA injection were obtained by extracting 1 mm samples from 2 mm thick disks of frozen tissue, using a stereotactic apparatus. The tissues were embedded in OCT, frozen in cooled isopentane, then preserved at -80° C. before being sectioned. 20 μm thick sections of the brain at the SNpc were made. […] The labeled brain sections were visualized using a confocal fluorescence microscope (SP5, Leica). […] The microscopy images were analyzed using the VisioScan T4.18 software (ExploraNova, La Rochelle, France) as described previously ([…]. 2003). The cell numbers were quantified stereologically on sections spaced apart regularly covering all of the rostrocaudal extent of the substantia nigra, using the VisioScan stereology tool. […]

## Cc1cn([C@H]2C=C[C@@H](CO)O2)c(=O)[nH]c1=O [Stavudine, 2′-3′-didehydro-2′-3′-dideoxythymidine]
[1]
  reduction of the formation of DSBs induced by H2O2: 40%
[2]
  formation of DNA breaks induced by wt L1 plasmid overexpressing LINE-1: suppressed
[3]
  number of TH+ neurons in the substantia nigra pars compacta (cell death after oxidative stress in vivo): higher
